# Laboratory results taken from PubChem BioAssay AID330 (DTP/NCI, 2004).
# Toxic doses and inconclusive results are not listed.
# Test system: P388 leukemia ip, CD2F1 mice, survival T/C
# Assay: NCI In Vivo Anticancer Drug Screen. Data for tumor model P388 Leukemia (intraperitoneal) in CD2F1 (CDF1) mice
# Conditions: endpoint: median survival time, higher = longer survival
# Method in brief: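 Mice carrying the transplanted tumor received test compound or vehicle. Survival was recorded in each group, and the value is the treated-group measurement divided by that of the vehicle-treated control group.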
# [1] = dose: 50.0 mg/kg/injection, schedule: Q01DX009 (ip), vehicle: saline with Tween-80
# [2] = dose: 100.0 mg/kg/injection, schedule: Q01DX009 (ip), vehicle: saline with Tween-80
# [3] = dose: 25.0 mg/kg/injection, schedule: Q01DX009 (ip), vehicle: water
# [4] = dose: 60.0 mg/kg/injection, schedule: Q01DX005 (ip), vehicle: saline with Tween-80
# [5] = dose: 120.0 mg/kg/injection, schedule: Q01DX005 (ip), vehicle: saline with Tween-80
# [6] = dose: 240.0 mg/kg/injection, schedule: Q01DX005 (ip), vehicle: saline with Tween-80
smiles,measurement,setting,value
COc1ccc(-c2nc(C)[nH]c(=O)c2Cc2c(O)ccc3ccccc23)cc1,T/C,"dose: 50.0 mg/kg/injection, schedule: Q01DX009 (ip), vehicle: saline",102 % of control
same,T/C,"dose: 100.0 mg/kg/injection, schedule: Q01DX009 (ip), vehicle: saline",100 % of control
same,T/C,"dose: 200.0 mg/kg/injection, schedule: Q01DX009 (ip), vehicle: saline",99 % of control
CN(C)c1cc(-c2ccccc2)oc(=O)c1Cl,T/C,[1],99 % of control
same,T/C,[2],100 % of control
c1cc[c]([Ge]([O][Ge]([c]2ccccc2)[c]2ccccc2)[c]2ccccc2)cc1.c1cc[c]([Ge]([O][Ge]([c]2ccccc2)[c]2ccccc2)[c]2ccccc2)cc1,T/C,"dose: 50.0 mg/kg/injection, schedule: Q01DX005 (ip), vehicle: Klucel (hydroxypropylcellulose) (HPC)",89 % of control
same,T/C,"dose: 100.0 mg/kg/injection, schedule: Q01DX005 (ip), vehicle: Klucel (hydroxypropylcellulose) (HPC)",91 % of control
same,T/C,"dose: 200.0 mg/kg/injection, schedule: Q01DX005 (ip), vehicle: Klucel (hydroxypropylcellulose) (HPC)",89 % of control
COc1ccc(C(C)(C)CC(C)(C)C)cc1,T/C,"dose: 12.5 mg/kg/injection, schedule: Q01DX009 (ip), vehicle: saline with Tween-80",101 % of control
same,T/C,"dose: 25.0 mg/kg/injection, schedule: Q01DX009 (ip), vehicle: saline with Tween-80",104 % of control
same,T/C,[1],104 % of control
same,T/C,[2],109 % of control
CCCCOCN(CCc1ccccc1)COCCCC,T/C,[1],118 % of control
same,T/C,"dose: 200.0 mg/kg/injection, schedule: Q01DX009 (ip), vehicle: saline with Tween-80",152 % of control
O=c1[nH]cnc2ccc3[nH]ncc3c12,T/C,"dose: 50.0 mg/kg/injection, schedule: Q01DX005 (ip), vehicle: saline with Tween-80",92 % of control
same,T/C,"dose: 100.0 mg/kg/injection, schedule: Q01DX005 (ip), vehicle: saline with Tween-80",94 % of control
same,T/C,"dose: 200.0 mg/kg/injection, schedule: Q01DX005 (ip), vehicle: saline with Tween-80",105 % of control
CCSC(C(O)C(O)C(O)C(O)CO)n1cnc2c(=S)nc[nH]c21 (configuration not stated),T/C,[3],97 % of control
same,T/C,"dose: 50.0 mg/kg/injection, schedule: Q01DX009 (ip), vehicle: water",94 % of control
same,T/C,"dose: 100.0 mg/kg/injection, schedule: Q01DX009 (ip), vehicle: water",105 % of control
same,T/C,"dose: 200.0 mg/kg/injection, schedule: Q01DX009 (ip), vehicle: water",105 % of control
same,T/C,"dose: 400.0 mg/kg/injection, schedule: Q01DX009 (ip), vehicle: water",96 % of control
Nc1cncc2nnnn12,T/C,"dose: 60.0 mg/kg/injection, schedule: Q01DX005 (ip), vehicle: Klucel (hydroxypropylcellulose) (HPC)",104 % of control
same,T/C,"dose: 120.0 mg/kg/injection, schedule: Q01DX005 (ip), vehicle: Klucel (hydroxypropylcellulose) (HPC)",104 % of control
same,T/C,"dose: 240.0 mg/kg/injection, schedule: Q01DX005 (ip), vehicle: Klucel (hydroxypropylcellulose) (HPC)",113 % of control
CN1C(c2cccnc2)=NCC12CCCC2,T/C,"dose: 7.5 mg/kg/injection, schedule: Q01DX005 (ip), vehicle: saline",98 % of control
same,T/C,"dose: 15.0 mg/kg/injection, schedule: Q01DX005 (ip), vehicle: saline",96 % of control
same,T/C,"dose: 30.0 mg/kg/injection, schedule: Q01DX005 (ip), vehicle: saline",97 % of control
O=c1cc(-c2ccccc2)nc2cc(-c3ccco3)[nH]n12,T/C,[4],102 % of control
same,T/C,[5],107 % of control
same,T/C,[6],111 % of control
COC(=O)c1nnn(-c2cc(Cl)ccc2Cl)c1C(=O)c1ccc(OC)cc1,T/C,[4],95 % of control
same,T/C,[5],100 % of control
same,T/C,[6],89 % of control
COc1cccc2c1C(=O)c1c(O)c3c(c(O)c1C2=O)C[C@@](O)(C(C)=O)C[C@@H]3OC(=O)CCN,T/C,"dose: 0.78 mg/kg/injection, schedule: Q01DX009 (ip), vehicle: water",112 % of control
same,T/C,"dose: 1.56 mg/kg/injection, schedule: Q01DX009 (ip), vehicle: water",110 % of control
same,T/C,"dose: 3.13 mg/kg/injection, schedule: Q01DX009 (ip), vehicle: water",118 % of control
same,T/C,"dose: 8.33 mg/kg/injection, schedule: Q01DX009 (ip), vehicle: water",123 % of control
same,T/C,"dose: 12.5 mg/kg/injection, schedule: Q01DX009 (ip), vehicle: water",120 % of control
same,T/C,"dose: 18.8 mg/kg/injection, schedule: Q01DX009 (ip), vehicle: water",101 % of control
same,T/C,[3],118 % of control
CCOC(=O)c1c(C)n(O)c2ccc(Cl)cc2c1=O,T/C,"dose: 50.0 mg/kg/injection, schedule: Q01DX009 (ip), vehicle: Klucel (hydroxypropylcellulose) (HPC)",100 % of control
same,T/C,"dose: 100.0 mg/kg/injection, schedule: Q01DX009 (ip), vehicle: Klucel (hydroxypropylcellulose) (HPC)",102 % of control
same,T/C,"dose: 200.0 mg/kg/injection, schedule: Q01DX009 (ip), vehicle: Klucel (hydroxypropylcellulose) (HPC)",104 % of control
C1CCCNCCNCCNCC1,T/C,[4],98 % of control
same,T/C,[5],100 % of control
same,T/C,[6],92 % of control
